Some test systems named below: A549 NSCLC; ACHN renal; HT29 colon; IGROV1 ovarian; OVCAR-5 ovarian; RXF 393 renal; SF-295 CNS; SW-620 colon.
Common to all, as to test: inhibition of tumour cell growth, NCI panel, 48 h

Among the data in PubChem BioAssay (NCI) are TGI values, retold here.

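Briefly, cells in 96-well plates were exposed to five compound concentrations for 48 h, and endpoints were estimated by linear interpolation. TGI is the concentration that stops growth completely.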 A value given as a limit tells only on which side of the number the result lay.

With `COC(=O)[C@H](Cc1ccccc1)NC(=O)c1ccc(CNC(=O)/C=C/c2cccc(Oc3ccccc3)c2)cc1`, the TGI in the assay on A549 NSCLC is over 100 µM; in the assay with ACHN renal it was 40.2 µM; with HT29 colon it was over 100 µM; in the assay with IGROV1 ovarian, 42.6 µM; in the assay on OVCAR-5 ovarian, over 100 µM; with RXF 393 renal, 24.2 µM. Also, the TGI with SF-295 CNS and in the assay on SW-620 colon was over 100 µM each time.

As to `CC(C)CCn1nc(N)c2nc3ccccc3nc21`, the TGI in the assay on A549 NSCLC, with ACHN renal, with HT29 colon, in the assay with IGROV1 ovarian, in the assay with OVCAR-5 ovarian and in the assay with RXF 393 renal was over 100 µM in each case. The TGI in the assay on SF-295 CNS and in the assay with SW-620 colon was over 100 µM throughout.

`COc1ccc(/C=N/N2C(=O)c3c(N)c(C#N)c(-c4ccccc4)c(-c4ccccc4)c3C2=O)cc1`: the TGI in the assay with A549 NSCLC, in the assay on ACHN renal, with IGROV1 ovarian, with OVCAR-5 ovarian, in the assay with RXF 393 renal and with SF-295 CNS was over 100 µM in each case. This compound also gave a TGI with SW-620 colon of over 100 µM.

`COc1cc(CNc2nc3cc(C(F)(F)F)ccc3nc2-c2ccccc2)cc(OC)c1OC`: the TGI is over 100 µM in the assay with A549 NSCLC; over 100 µM in the assay on ACHN renal; over 100 µM in the assay on HT29 colon; over 100 µM with IGROV1 ovarian; 51.7 µM in the assay with RXF 393 renal; over 100 µM in the assay on SF-295 CNS. This compound also registered a TGI in the assay on SW-620 colon of over 100 µM.

Turning to `COc1ccccc1N1CCN(CCCNC(=O)c2cc(Cl)c(N)c(Cl)c2)CC1`, the TGI in the assay on A549 NSCLC is over 100 µM; with ACHN renal, over 100 µM; in the assay with HT29 colon, over 100 µM; with IGROV1 ovarian, over 100 µM; with OVCAR-5 ovarian, over 100 µM; in the assay with RXF 393 renal it was 91 µM. For the same compound, the values for the TGI with SF-295 CNS and in the assay on SW-620 colon were 34.1 µM and over 100 µM, respectively.

Take `Cc1cn2c(C)csc2c1P(=O)(OC(C)C)OC(C)C`: the TGI in the assay on A549 NSCLC, with ACHN renal, in the assay with HT29 colon, with IGROV1 ovarian, with OVCAR-5 ovarian and with RXF 393 renal was over 100 µM each time. In addition, the TGI with SF-295 CNS and in the assay with SW-620 colon was over 100 µM each time.

As for `CSC(SC)=C1C(=O)N(c2ccccc2)N=C1C`, the TGI with A549 NSCLC is over 100 µM; in the assay on ACHN renal, over 100 µM; with HT29 colon, over 100 µM; in the assay on IGROV1 ovarian it was 93.5 µM; with OVCAR-5 ovarian it was over 100 µM; in the assay on RXF 393 renal it was 74.4 µM. The TGI was 99.6 µM in the assay on SF-295 CNS and over 100 µM with SW-620 colon.

For the compound `COc1cc([C@@H]2c3cc4c(cc3[C@@H](c3c(O)cc(O)c5c3O[C@H](c3ccc(O)c(O)c3)[C@@H](O)C5)[C@H]3COC(=O)[C@H]23)OCO4)cc(OC)c1O`, the TGI in the assay on A549 NSCLC, with ACHN renal, in the assay with HT29 colon, with IGROV1 ovarian, in the assay with OVCAR-5 ovarian and with RXF 393 renal was over 100 µM each time. In addition, the TGI in the assay on SF-295 CNS and in the assay on SW-620 colon was over 100 µM each time.

`NS(=O)(=O)c1ccc(NC(NC(=O)C(C(F)(F)F)C(F)(F)F)(C(F)(F)F)C(F)(F)F)cc1`: the TGI in the assay on A549 NSCLC, with ACHN renal, with HT29 colon, in the assay with IGROV1 ovarian, in the assay on OVCAR-5 ovarian and in the assay with RXF 393 renal was over 100 µM in each case. Moreover, the TGI in the assay with SF-295 CNS and in the assay on SW-620 colon was over 100 µM each time.

Regarding `COc1ccc(N=NC(=Nc2ccc(F)cc2)c2ccc(N(CCC#N)CCC#N)cc2)cc1`, the TGI is 43.1 µM with A549 NSCLC; over 100 µM in the assay with ACHN renal; over 100 µM in the assay on HT29 colon; 77.7 µM with IGROV1 ovarian; over 100 µM in the assay on OVCAR-5 ovarian; 90 µM in the assay with RXF 393 renal. Also, the TGI with SF-295 CNS and with SW-620 colon was over 100 µM throughout.

Regarding `O=C(O)CSC(NC(=O)C(C(F)(F)F)C(F)(F)F)(C(F)(F)F)C(F)(F)F`, the TGI in the assay on A549 NSCLC, with ACHN renal, in the assay with HT29 colon, in the assay on IGROV1 ovarian, in the assay on OVCAR-5 ovarian and in the assay with RXF 393 renal was over 100 µM throughout. In the assay with SW-620 colon, this compound had a TGI of over 100 µM.

In the case of `CC/C(Cl)=N\OC(=O)Nc1ccc(F)c([N+](=O)[O-])c1`, the TGI in the assay on A549 NSCLC is 43.4 µM; with ACHN renal, 4.78 µM; with HT29 colon, over 57.8 µM; in the assay with IGROV1 ovarian, 33.8 µM; with OVCAR-5 ovarian, 44.9 µM; in the assay with RXF 393 renal, 30.4 µM. Moreover, the TGI amounted to 41.6 µM in the assay with SF-295 CNS and 33.6 µM in the assay on SW-620 colon.

As to `CC(C)(C)C(=O)C(Cc1ccccc1)C(=O)C(C)(C)C`, the TGI in the assay on A549 NSCLC, in the assay on ACHN renal, in the assay with HT29 colon, with IGROV1 ovarian, in the assay on OVCAR-5 ovarian and in the assay with RXF 393 renal was over 100 µM in each case. The TGI with SF-295 CNS and in the assay on SW-620 colon was over 100 µM each time.

For `C=C(C)[C@@]1(O[Si](C)(C)C)CCCC[C@@H]1CC(Sc1ccccc1)Sc1ccccc1`, the TGI is 23.1 µM with A549 NSCLC; 28.8 µM with ACHN renal; 34.8 µM in the assay with HT29 colon; 32.7 µM in the assay on IGROV1 ovarian; 30.3 µM in the assay on OVCAR-5 ovarian; 24.6 µM in the assay with RXF 393 renal. In addition, the TGI in the assay on SF-295 CNS amounted to 25.5 µM; in the assay with SW-620 colon, 30.2 µM.

As to `Cc1c(C#N)c(N)n(C2OCC(O)C(O)C2O)c(=S)c1C#N` (centres undefined), the TGI with A549 NSCLC, in the assay on ACHN renal, with HT29 colon, in the assay on IGROV1 ovarian, with OVCAR-5 ovarian and in the assay on RXF 393 renal was over 100 µM each time. Also, the TGI in the assay with SF-295 CNS and in the assay with SW-620 colon was over 100 µM throughout.

On to `CC(C)(C)OC(=O)n1c(-c2ccccc2F)cc(=O)c2cc3c(cc21)OCO3`, for which the TGI in the assay with A549 NSCLC is over 39.7 µM; with ACHN renal, over 58.7 µM; in the assay on HT29 colon it was 0.368 µM; in the assay with OVCAR-5 ovarian it was over 100 µM; in the assay with RXF 393 renal, over 40.3 µM; in the assay on SF-295 CNS, over 100 µM. Also, in the assay on SW-620 colon, the TGI was over 100 µM.
